Read-outs that look alike come from different tables or passages of the source.
Assays:
[1] = test system: immunologically stimulated human basophils; assay: Inhibition of histamine release from immunologically stimulated human basophils; type: cell-based; settings: 1 h; human basophils challenged with anti-IgE or antigen; 60 minutes at 37° C.; active if ED50 ≤48 μM; read-out: ED50 (concentration which causes a 50% inhibition of histamine release)
Method: The novel compounds of this invention have been tested by the procedure of Lichtenstein, L. M. and Osler, A. G., J. Exp. Med., 120, 507-530 (1964), which evaluated the ability of compounds to inhibit mediator (histamine) release from immunologically stimulated human basophils.
Dissolve 140.3 g of sodium chloride, 7.45 g of potassium chloride and 74.5 g of Trizma-Tris Pre-Set, Reagent Grade, pH 7.6, at 25° C. (Sigma Chemical Co.) in sufficient water to give a final volume of 2 liters.
(Sigma Chemical Co.) (30 mg/ml)
Made to 0.75M and 0.5M respectively, with calcium chloride dihydrate and magnesium chloride hexahydrate.
A 10 ml portion of 10× Tris Buffer and 1.0 ml of human albumin are diluted to 100 ml with water.
A 10 ml portion of 10× Tris Buffer, 1.0 ml of human albumin, 0.8 ml of calcium stock and 0.2 ml of magnesium stock are diluted to 100 ml with water.
Behring Diagnostics (Generally used at […] final concentration).
Strength 1:100 (w:v) allergenic extract, Hollister-Stier Labs. Generally this is diluted 1:1000 to 1:10,000 (considering the vial as stock).
Intradermal solutions of intramuscular preparations for hyposensitization, Hollister-Stier Labs. The final concentration used is on the order of 1 PNU/ml.
Eighty milliliters of blood is withdrawn from subjects with known histamine release to anti-IgE, ragweed antigen or other specific allergen, using four 20 ml heparinized tubes. This 80 ml of blood is mixed with 20 ml of saline containing 0.6 g of dextrose and 1.2 g of dextran. The blood is allowed to sediment at room temperature in two 50 ml polycarbonate centrifuge tubes until a sharp interface develops between the red cells and plasma (60-90 minutes). The plasma (top) layer from each tube is withdrawn by pipet and transferred to respective 50 ml polycarbonate tubes. The plasma is centrifuged for 8 minutes at 110×G at 4° C. The supernatant is carefully poured off as completely as possible and the cell button is resuspended in 2-3 ml of Tris-A buffer using a silconized Pasteur pipet. The resuspension is accomplished by drawing the liquid gently in an out of the pipet, with the tip below the liquid, until and even suspension of cells is obtained. Sufficient Tris-A buffer is then added to bring the volume in the tube to about 45 ml and the tube is centrifuged at 110×G for 8 minutes at 4° C. The supernatant is poured off and the cell button is resuspended and centrifuged as described above. The supernatant is poured off and the cell button suspended in 2-3 ml of Tris-ACM buffer to make the final volume sufficient to allow addition to the reaction tubes.
Reaction tubes containing anti-IgE or antigens, either alone or with test compound in a total volume of 0.2 ml are prepared and placed in a 37° C. bath. The cells are warmed to 37° C. and frequently swirled to ensure and even suspension, while 1.0 ml aliquots are added to each reaction tube. The tubes are then incubated for 60 minutes at 37° C., vortexing the tubes gently every 15 minutes to keep the cells evenly suspended. When the reaction is complete, the tubes are centrifuged at 4° C. for 10 minutes at 1500 rpm to sediment the cells. One ml aliquots of supernatant are transferred to 12 mm by 75 mm polyethylene tubes and 0.2 ml of 8% perchloric acid is added to each tube. Blanks and totals are included in each test. The blanks have cells and all reagents except antigent or anti-IgE. The totals contain 0.24 ml of 8% perchloric acid, one ml of cells and 0.2 ml of buffer. […]

Neutrophil Lipoxygenase = molecular target: T1, Neutrophil Lipoxygenase (Cavia porcellus, UniProt A0A286X958); assay: Inhibition of neutrophil lipoxygenase (release and biosynthesis of LTB4 and 5-HETE) in guinea pig neutrophils; type: cell-based; settings: 10 μg/ml compound, 100 μM arachidonic acid and 20 μM calcium ionophore (A23187), the lower the percentage, the more active
T1 construct: peritoneal neutrophils derived from guinea pigs; endogenous in cells; host or cells: guinea pig peritoneal neutrophils
T1 sequence (A0A286X958 1-674): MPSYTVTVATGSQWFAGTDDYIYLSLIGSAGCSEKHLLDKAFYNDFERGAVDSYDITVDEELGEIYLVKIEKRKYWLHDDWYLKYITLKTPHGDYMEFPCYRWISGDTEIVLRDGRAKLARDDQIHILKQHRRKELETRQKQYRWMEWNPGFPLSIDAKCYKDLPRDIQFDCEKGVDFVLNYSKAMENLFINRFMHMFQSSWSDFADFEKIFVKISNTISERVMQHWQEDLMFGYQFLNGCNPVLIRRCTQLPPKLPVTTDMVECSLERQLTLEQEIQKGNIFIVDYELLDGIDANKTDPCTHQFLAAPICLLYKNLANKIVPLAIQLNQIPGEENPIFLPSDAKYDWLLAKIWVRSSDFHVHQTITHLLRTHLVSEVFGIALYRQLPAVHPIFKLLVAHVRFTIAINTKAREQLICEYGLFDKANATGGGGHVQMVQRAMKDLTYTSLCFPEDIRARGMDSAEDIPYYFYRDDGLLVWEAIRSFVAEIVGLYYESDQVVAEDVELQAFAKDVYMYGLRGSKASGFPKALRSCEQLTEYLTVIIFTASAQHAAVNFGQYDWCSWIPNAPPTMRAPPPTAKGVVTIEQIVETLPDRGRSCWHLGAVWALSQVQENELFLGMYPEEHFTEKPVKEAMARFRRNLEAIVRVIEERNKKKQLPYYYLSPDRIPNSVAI
Method: The ability of these compounds to inhibit lipoxygenase activity in terms of the suppression of the release and biosynthesis of leukotriene B4 (LTB4) and 5-hydroxyeicosatetraenoic acid (5-HETE) was measured as follows.
In this assay 3×10^7 peritoneal neutrophils derived from guinea pigs were incubated at 37° C. in Dulbeccos buffer containing 50 mM tris buffer (pH 7.4). Five minutes before the addition of 100 μM arachidonic acid and 20 μM calcium ionophore (A23187), control vehicle or the test compounds were added to the neutrophils at a concentration of 10 μg/ml.
Three minutes after the addition of arachidonic acid and calcium ionophore the total lipid was partitioned into chloroform after adjusting the pH to 3 with citric acid and the addition of equal parts of methanol and chloroform.
The 5-HETE and LTB4 were resolved by HPLC using a 5M, 4×25 cm octadecyl silica column (IBM Instruments) with 70-80% methanol in water adjusted to pH 3.0 with acetic acid. As the mobile phase was pumped at 1.0 ml/minute, LTB4 and 5-HETE were detected by absorbance at 270 and 236 nm, respectively.
LTB4 and 5-HETE were quantitated by comparison with the control and the results were expressed as a percent of control.

[2] = 5-HETE, read-out: 5-HETE, % of Control
[3] = LTB4, read-out: LTB4, % of Control

| IC50 [1] | remaining activity at 10 µg/mL (Neutrophil Lipoxygenase; [2]) | remaining activity at 10 µg/mL (Neutrophil Lipoxygenase; [3]) | SMILES |
| --- | --- | --- | --- |
| 6.6 µM | 1.6% | 0% | O=C1C=C(N2CCN(c3cccc(C(F)(F)F)c3)CC2)C(=O)c2nccnc21 [6-[4-[3-(Trifluoromethyl)phenyl]-1-piperazinyl]-5,8-quinoxalinedione] |
| – | 53.9% | 8% | O=C1C=C(N2CCN(Cc3ccccc3)CC2)C(=O)c2nccnc21 [6[4-(Phenylmethyl)-1-piperazinyl]-5,8-quinoxalinedione] |
| 3.7 µM | – | – | CCOC(=O)N1CCN(C2=CC(=O)c3nccnc3C2=O)CC1 [4-(5,8-dihydro-5,8-dioxo-6-quinoxalinyl)-1-piperazine carboxylic acid ethyl ester] |
| 1.2 µM | 67.2% | 8% | O=C1C=C(N2CCN(c3nc4ccccc4s3)CC2)C(=O)c2nccnc21 [6-[4-(2-Benzothiazoyl)-1-piperazinyl]-5,8-quinoxalinedione] |
| – | 11.9% | 5.7% | O=C1C(N2CCN(c3cccc(C(F)(F)F)c3)CC2)=CC(=O)c2ncccc21 [6-[4-[3-(Trifluromethyl)phenyl]-1-piperazinyl]-5,8-quinolinediones] |
| 12.1 µM | – | – | O=C1C(N2CCN(Cc3ccccc3)CC2)=CC(=O)c2ncccc21 [6-[4-(Phenylmethyl)-1-piperazinyl]-5,8-quinolinedione] |
| – | 22.7% | 35.8% | O=C1C=C(N2CCN(c3nc4ccccc4o3)CC2)C(=O)c2ncccc21 [7-[4-(2-Benzoxazolyl)-1-piperazinyl]-5,8-quinolinedione] |
| 17.4 µM | – | – | CCOC(=O)N1CCN(C2=CC(=O)c3ncccc3C2=O)CC1 [4-(5,8-Dihydro-5,8-dioxo-6-quinolyl)-1-piperazinecarboxylic acid ethyl ester] |
| – | 36.9% | 8% | O=C1C(N2CCN(c3nc4ccccc4o3)CC2)=CC(=O)c2ncccc21 [6-[4-(2-Benzoxazolyl)-1-piperazinyl]-5,8-quinolinedione] |
